Source: US9877997B2, “Methods and compositions for regulating SRCA2A expression levels in myocardial infarction” (Stealth BioTherapeutics Corp., priority 2013, dated 2018)

How the values were obtained:
[1] = test system: plasma membrane of several mammalian cell types; conditions: energy-independent manner; cited from earlier work
[2] = test system: Rats with permanent coronary artery ligation; assay: Post-infarction remodeling in a rodent model of heart failure, LV chamber volume (Example 3); type: in vivo, rat
Description: Rats underwent the permanent coronary artery ligation, as described in Example 2. The rats were split into two groups and treated for six weeks with either 3 mg/kg/day of D-Arg-2′6′-Dmt-Lys-Phe-NH2 or 0.9% NaCl (saline) continuously through mini-osmotic pumps, which were implanted into each animal.
After the six week period, LV function was assessed with echocardiography. Additionally, the hearts were excised and the heart tissue analyzed for LV chamber volume using tetrazolium salt staining Heart tissue in the border zone and remote areas around the infarct were also harvested and underwent gene array analysis to determine the expression levels of genes involved in mitochondrial metabolism.

[3] = test system: Rats with permanent left coronary artery occlusion; assay: Heart weight and post-mortem LV volume (Example 2); type: in vivo, rat; conditions: 6 weeks after treatment
Description: (§1) Rats were anesthetized, ventilated, and a thoracotomy performed in the left 4th intercostal space. Temperature was maintained at 36° C. by placing the rats on a heating pad during the procedure. The pericardium was excised and the proximal left coronary artery isolated and permanently occluded with a suture. Coronary artery occlusion was confirmed by cyanosis and akinesis of the anterior wall of the ventricle. The chest was closed, air evacuated, and the rats allowed to recover. Analgesia was administered per the veterinarian. An echocardiogram was obtained at approximately 15 minutes post coronary artery occlusion. At 2 hours rats were randomized to receive chronic daily D-Arg-2′6′-Dmt-Lys-Phe-NH2 (delivered subcutaneously by an Alzet Osmotic Pump—3 mg/kg/day) or water. The Osmotic Pump delivered approximately 0.15 μl/hr for 6 weeks (model 2006; 200 μl). The Alzat pump was implanted subcutaneously between the shoulder blades while the rat was still anesthetized. After 6 weeks the rats were re-anesthetized, weighed, and a second echocardiogram was obtained under anesthesia. Cut downs were performed to isolate the carotid artery and jugular vein. Heart rate and blood pressure were measured. A Millar catheter was inserted into the left ventricle and LV systolic pressure, LV end diastolic pressure, +dP/dt, and −dP/dt were measured. A left ventriculogram was performed using IV fluoroscopic contrast in order to determine LV stroke volume and ejection fraction. Under deep anesthesia, the heart was excised, weighed, and pressure fixed at 11 mmHg with formalin. The lungs were also excised and weighed. Postmortem LV volume was measured by filling the LV cavity with fluid and measuring the total fluid. […] Quantitative histologic analysis included: total circumference, scar circumference, non-infarcted wall circumference, total LV area, total LV cavity area, LV wall thickness (at several points), non-infarcted wall thickness; myocardial infarct expansion index. […]

[4] = test system: Rats with permanent left coronary artery occlusion; assay: Survival during 6 weeks treatment after coronary occlusion (Example 2); type: in vivo, rat; conditions: 6 weeks treatment after randomization at 2 hours post occlusion
Description: as §1, with “The Osmotic Pump delivered approximately 0.15 μl/hr for 6 weeks (model 2006; 200 μl). The Alzat pump was implanted subcutaneously between the shoulder blades while the rat was still anesthetized. After 6 weeks the rats were re-anesthetized, weighed, and a second echocardiogram was obtained under anesthesia. Cut downs were performed to isolate the carotid artery and jugular vein.” left out, “A left ventriculogram was performed using IV fluoroscopic contrast in order to determine LV stroke volume and ejection fraction. Under deep anesthesia, the heart was excised, weighed, and pressure fixed at 11 mmHg with formalin. The lungs were also excised and weighed.” left out

[5] = test system: Rats with permanent left coronary artery occlusion; assay: LV fractional shortening by echocardiography, permanent coronary occlusion (Example 2); type: in vivo, rat
Description: as §1

[6] = test system: Rats with permanent left coronary artery occlusion; assay: LV stroke volume and ejection fraction by LV ventriculography (Example 2); type: in vivo, rat; conditions: 6 weeks after treatment, 3 mg/kg/day s.c.
Description: as §1, with “The Osmotic Pump delivered approximately 0.15 μl/hr for 6 weeks (model 2006; 200 μl). The Alzat pump was implanted subcutaneously between the shoulder blades while the rat was still anesthetized. After 6 weeks the rats were re-anesthetized, weighed, and a second echocardiogram was obtained under anesthesia. Cut downs were performed to isolate the carotid artery and jugular vein.” left out, “A left ventriculogram was performed using IV fluoroscopic contrast in order to determine LV stroke volume and ejection fraction. Under deep anesthesia, the heart was excised, weighed, and pressure fixed at 11 mmHg with formalin. The lungs were also excised and weighed.” left out

[7] = test system: Rats with permanent left coronary artery occlusion; assay: Hemodynamics: heart rate, blood pressure and LV pressures by Millar catheter (Example 2); type: in vivo, rat; conditions: 6 weeks after treatment
Description: (§2) Rats were anesthetized, ventilated, and a thoracotomy performed in the left 4th intercostal space. Temperature was maintained at 36° C. by placing the rats on a heating pad during the procedure. The pericardium was excised and the proximal left coronary artery isolated and permanently occluded with a suture. Coronary artery occlusion was confirmed by cyanosis and akinesis of the anterior wall of the ventricle. The chest was closed, air evacuated, and the rats allowed to recover. Analgesia was administered per the veterinarian. An echocardiogram was obtained at approximately 15 minutes post coronary artery occlusion. At 2 hours rats were randomized to receive chronic daily D-Arg-2′6′-Dmt-Lys-Phe-NH2 (delivered subcutaneously by an Alzet Osmotic Pump—3 mg/kg/day) or water. The Osmotic Pump delivered approximately 0.15 μl/hr for 6 weeks (model 2006; 200 μl). The Alzat pump was implanted subcutaneously between the shoulder blades while the rat was still anesthetized. After 6 weeks the rats were re-anesthetized, weighed, and a second echocardiogram was obtained under anesthesia. Cut downs were performed to isolate the carotid artery and jugular vein. Heart rate and blood pressure were measured. A Millar catheter was inserted into the left ventricle and LV systolic pressure, LV end diastolic pressure, +dP/dt, and −dP/dt were measured. A left ventriculogram was performed using IV fluoroscopic contrast in order to determine LV stroke volume and ejection fraction. Under deep anesthesia, the heart was excised, weighed, and pressure fixed at 11 mmHg with formalin. The lungs were also excised and weighed. Postmortem LV volume was measured by filling the LV cavity with fluid and measuring the total fluid. The hearts were sliced into four transverse sections and histologic slides were prepared and stained with hematoxylin and eosin and with picrosirius red, which stains collagen. Quantitative histologic analysis included: total circumference, scar circumference, non-infarcted wall circumference, total LV area, total LV cavity area, LV wall thickness (at several points), non-infarcted wall thickness; myocardial infarct expansion index.
(§3) All data is reported as means±SEM. Values between groups were compared by Student t-test. P is significant at p<0.05 level.

SERCA2a expression = SERCA2a expression by qRT-PCR in heart samples post-myocardial infarction (Example 1); type: in vivo; conditions: rat, 6 weeks, normalized to β-actin, relative to sham
Description: Rats were anesthetized, ventilated, and a thoracotomy performed in the left 4th intercostal space. Temperature was maintained at 36° C. by placing the rats on a heating pad during the procedure. The pericardium was excised and the proximal left coronary artery isolated and permanently occluded with a suture. Coronary artery occlusion was confirmed by cyanosis and akinesis of the anterior wall of the ventricle. The chest was closed, air evacuated, and the rats allowed to recover. Analgesia was administered per the veterinarian. An echocardiogram was obtained at approximately 15 minutes post coronary artery occlusion. At 2 hours rats were randomized to receive chronic daily D-Arg-2′6′-Dmt-Lys-Phe-NH2 (delivered subcutaneously by an Alzet Osmotic Pump—3 mg/kg/day, n=7), water (n=7), sham operation (normal non-infarct hearts, n=7). The Osmotic Pump delivered approximately 0.15 μl/hr for 6 weeks (model 2006; 200 μl). The Alzat pump was implanted subcutaneously between the shoulder blades while the rat was still anesthetized.
After 6 weeks, heart samples were collected from shams, border zone cells of water-treated infarcted hearts (MI/BZ) and D-Arg-2′6′-Dmt-Lys-Phe-NH2-treated hearts (MI/BZ+AP), and remote noninfarcted area cells of water-treated hearts (MI/R) and of D-Arg-2′6′-Dmt-Lys-Phe-NH2-treated hearts (MI/R+AP). […]

[8] = test system: Rats with permanent left coronary artery occlusion; assay: Quantitative histologic analysis of scar circumference, scar thickness and expansion index (Example 2); type: in vivo, rat; conditions: 6 weeks after treatment
Description: as §2, §3

2′,6′-Dmt-D-Arg-Phe-Lys-NH2
plasma membrane penetration [1]: readily penetrates the plasma membrane

D-Arg-2′6′-Dmt-Lys-Phe-NH2
LV volume/heart weight ([2]; 3 mg/kg/day for six weeks by mini-osmotic pump versus 0.9% NaCl, FIG. 6): decrease in LV volume/heart weight | LV dilation ([2]; 3 mg/kg/day for six weeks by mini-osmotic pump, post-infarction model of heart failure): reduced LV dilation | Heart weight ([3]; 3 mg/kg/day s.c.): 0.724 ± 0.011 g | LV volume (post-mortem) ([3]; heart pressure fixed at 11 mmHg): 0.519 ± 0.019 mL | LV volume/heart weight ([3]; post-mortem LV volume standardized by heart weight): 0.72±0.02 | deaths during treatment [4]: no rats died | left ventricular fractional shortening (LVFS) ([5]; 6 weeks after treatment, 3 mg/kg/day s.c. osmotic pump from 2 hours post occlusion): 28.8±1.7% | left ventricular fractional shortening (LVFS) ([5]; 15 minutes after coronary occlusion (before treatment)): 45±1.8 | left ventricular fractional shortening (LVFS) ([5]; baseline before coronary occlusion (before treatment)): 44.5±1.1% | LV ejection fraction [6]: 55.3±1.4% | LV stroke volume [6]: 0.257 ± 0.008 mL | minimum left ventricular pressure [7]: 0.64±0.55 mmHg | Diastolic BP ([7]; 3 mg/kg/day s.c.): 85 ± 2 mmHg | Heart Rate ([7]; 3 mg/kg/day s.c.): 209 ± 5 | Mean BP ([7]; 3 mg/kg/day s.c.): 94 ± 3 mmHg | Systolic BP ([7]; 3 mg/kg/day s.c.): 114 ± 4 mmHg | +dp/dt ([7]; left ventricle): 5668 | Ped (end diastolic left ventricular pressure) ([7]; left ventricle): 5.63 | Pes (end systolic left ventricular pressure) ([7]; left ventricle): 105 | Pmin (minimum left ventricular pressure) ([7]; left ventricle): 0.64 + | Tau Glantz ([7]; left ventricle): 24.6 | Tau Weiss ([7]; left ventricle): 14.6 | −dp/dt ([7]; left ventricle): 3639 | SERCA2a expression, border zone cells (MI/BZ+AP) (SERCA2a expression; 3 mg/kg/day s.c. osmotic pump from 2 hours post occlusion): restored SERCA2a expression to near normal levels | SERCA2a expression, nonischemic remote area (MI/R) (SERCA2a expression; 3 mg/kg/day s.c. osmotic pump): no significant differences | Scar circumference (%), expressed as percentage of total LV circumference [8]: 39.7±2.2% | Scar thickness [8]: 0.504 ± 0.039 mm | Septum thickness [8]: 1.45 ± 0.03 mm | LV non-scar circumference ([8]; histological analysis): 15.4±0.4 mm | scar circumference ([8]; histological analysis): 9.9±0.6 mm | Expansion index ([8]; [LV cavity area/Total LV area×Septum thickness/Scar thickness]): 1.67 ± 0.12
